Data reported in US12509437B2, “Substituted thiophene carboxamides and derivatives thereof as microbicides” (Bayer Aktiengesellschaft, priority 2019, dated 2025).

What was measured:
[1] = LogP by HPLC on reversed phase columns (EEC directive 79/831 Annex V.A8); type: physicochemical
Description: [table] If more than one Log P value is available within the same method, all the values are given and separated by “+”. Calibration was done with straight-chain alkan2-ones (with 3 to 16 carbon atoms) with known Log P values (measurement of Log P values using retention times with linear interpolation between successive alkanones). Lambda-max-values were determined using UV-spectra from 200 nm to 400 nm and the peak values of the chromatographic signals.

[2] = tested on: salicylate responsive promoter sequence of the PR1 (pathogenesis-related protein I) gene (AT2G14610); assay: Induction of defense gene expression in Arabidopsis thaliana (PR1 promoter-GFP reporter plants); type: in vivo; conditions: 72 h, 300 ppm, 3rd day after spraying, mock treated leaves set as 1.00, read-out: relative fluorescence value
Description: Arabidopsis thaliana reporter plants containing the coding sequence of a green fluorescent protein (GFP) linked to the salicylate responsive promoter sequence of the PR1 (pathogenesis-related protein I) gene (AT2G14610) were grown for five days and then sprayed with compounds. On the 3rd day after spraying, plant fluorescence was assessed with a MacroFluo instrument from Leica Microsystems (Wetzlar, Germany). Fluorescences were quantified with the Meta-Morph Microscopy Automation & Image Analysis Software (Molecular Devices, Sunnyvale, Calif., United States). Background fluorescence in mock treated leaves was set as 1.00.

[3] = method [a]: LC-UV, acidic range, 0.1% formic acid in water and acetonitrile as eluent

LogP ([1]; method [a])	SMILES	also measured
4.05^[a]	COC(=O)C(C)NC(=S)c1sc(Br)c(Br)c1C (stereo not shown) [I.149]	–
4.38^[a]	CCOC(=O)C(C)NC(=S)c1sc(Br)c(Br)c1C (stereo not shown) [I.150]	–
–	Cc1c(C(=O)NC2(C#N)CCC(C3CCCCC3)CC2)sc(Br)c1Br (stereo not shown) [I.151]	LogP [1, 3]: 6.06^[a]
3.50^[a]	Cc1c(C(=O)NC(C)(C#N)C2CC2)sc(Br)c1Br (stereo not shown) [I.152]	–
4.44^[a]	Cc1c(C(=O)NC(C(=O)OC2CCC2)C2CC2)sc(Cl)c1Cl (stereo not shown) [I.153]	–
4.23^[a]	Cc1c(C(=O)NC(C(=O)OC(C)C)C2CC2)sc(Cl)c1Cl (stereo not shown) [I.154]	–
4.19^[a]	Cc1c(C(=O)NC2(C(=O)OCC3CC3)CCC2)sc(Cl)c1Cl [I.155]	–
4.55^[a]	Cc1c(C(=O)NC2(C(=O)OC(C)(C)C)CCC2)sc(Cl)c1Cl [I.156]	–
4.59^[a]	CCCCOC(=O)C1(NC(=O)c2sc(Cl)c(Cl)c2C)CCC1 [I.157]	–
5.08^[a]	Cc1c(C(=O)NC2(C(=O)OC3CCCCC3)CCC2)sc(Cl)c1Cl [I.158]	–
2.54^[a]	Cc1c(C(=O)NC2(C(N)=S)CC2)sc(Cl)c1Cl [I.159]	–
2.12^[a]	CNC(=O)C1(NC(=O)c2sc(Cl)c(Cl)c2C)CC1 [I.160]	–
4.70^[a]	Cc1c(C(=O)NC(C(=O)OC(C)(C)C)C2CC2)sc(Cl)c1Cl (stereo not shown) [I.161]	–
–	Cc1c(C(=O)N[C@H]2CCCNC2=O)sc(Cl)c1Cl [I.162]	LogP [1, 3]: 2.12^[a]
–	Cc1c(C(=O)NC2CCCCNC2=O)sc(Cl)c1Cl (stereo not shown) [I.163]	LogP [1, 3]: 2.67^[a]
4.60^[a]	COC(=O)C(C)(Cc1ccccc1)NC(=O)c1sc(Cl)c(Cl)c1C (stereo not shown) [I.166]	–
–	Cc1c(C(=O)N[C@H]2CCOC2=O)sc(Cl)c1Cl [I.167]	LogP [1, 3]: 2.34^[a]
3.75^[a]	CCOC(=O)CN(C(=O)c1sc(Cl)c(Cl)c1C)C1CC1 [I.168]	–
3.59^[a]	Cc1c(C(=O)NC2(C#N)CCSCC2)sc(Br)c1Br [I.169]	–
–	Cc1c(C(=O)NC2(C#N)CCC(c3ccccc3)CC2)sc(Br)c1Br (stereo not shown) [I.170]	LogP [1, 3]: 4.78^[a]
2.71^[a]	Cc1c(C(=S)NCC(=O)O)sc(Cl)c1Cl [I.172]	–
3.05^[a]	Cc1c(C(=S)NC(C)C(=O)O)sc(Br)c1Br (stereo not shown) [I.173]	–
3.50^[a]	Cc1c(C(=O)NC2(C#N)CCCSC2)sc(Br)c1Br (stereo not shown) [I.177]	–
–	Cc1c(C(=O)NCC(=O)O)sc(Br)c1Br [N-[(4,5-dibromo-3-methyl-2-thienyl)carbonyl]glycine]	chromatographic logP ([1]; reversed phase HPLC columns, preparation examples, method not indicated, read-out: Log P): 2.05
–	O=C(O)c1ccccc1O [Salicylic acid, reference compound]	fold induction at 300 ppm [2]: 2.7
